The values below are quoted from earlier work in patent US20230022721A1, “COMPOSITIONS AND METHODS FOR INHIBITION AND INTERRUPTION OF BIOFILM FORMATION” (DENTSPLY SIRONA Inc., priority 2016, published 2023).

Series [1] relates to Fungi: C. albicans; A. niger.
Series [2] concerns Bacteria: S. aureus; P. aeruginosa; E. coli.
In series [3] the test system is Bacteria: P. aeruginosa; Staphylococcus spp.
The test system of series [4] is Bacteria: E. coli; S. aureus; S. typhimurium.
For series [5], the system named is Bacteria: Gram-positive bacteria. The note with it: vs model compound.

Structures are written as SMILES.

As to `Cc1cc(NS(=O)(=O)c2ccc(N3C(=O)C=CC3=O)cc2)no1`, in series [1], the “Comparison of Polymers with Monomer” value was “The homopolymer is more effective than the monomer at all concentrations.^[6]”.
With `C=C(C)C(=O)OCC(O)CSc1nnc(C)s1` (centres unmarked), the “Comparison of Polymers with Monomer” value in series [2] is “The homopolymer is more effective than the monomer.^[8]”.
On to `C=CC(=O)Oc1cc(Cl)ccc1Oc1ccc(Cl)cc1Cl`, for which the “Comparison of Polymers with Monomer” value in series [3] is “The homopolymer and copolymers with methyl methacrylate, styrene are all less effective than the monomer.^[10]”.
As for `C=CC(=O)Oc1ccc(Cl)c2cccnc12`, the “Comparison of Polymers with Monomer” value in series [4] was “The homopolymer and the copolymers with acrylamide are both less effective than the monomer.^[13]”.
In the case of `C=Cc1ccc(C[S+]2CCCC2)cc1`, in series [5], the “Comparison of Polymers with Monomer” value is given as “The homopolymer is more effective than the corresponding model compound (p- ethylbenzyl tetramethylene sulforium tetrafluoroborate)”.
